For orientation: IC50 means the point on the concentration scale where inhibition reaches its midpoint.

Assay [1] can be described thus: Cytotoxicity against mouse B16F10 cells assessed as growth inhibition after 72 hrs by MTT assay. Format: functional, cell-based. Particulars: B16-F10, 72 h. (In general: Tetrazolium dyes change colour on reduction, which living cells bring about.)
Assay [2] concerns HepG2. In words: Potency index, ratio of maslinic acid IC50 to compound IC50 for human HepG2 cells. Format: functional.
In assay [3] the test system is B16-F10. In words: Potency index, ratio of maslinic acid IC50 to compound IC50 for mouse B16F10 cells. Format: functional.
Assay [4] relates to HT-29. Kind of assay: Potency index, ratio of maslinic acid IC50 to compound IC50 for human HT-29 cells. The assay is classed as functional.
Assay [5] has as its system HT-29. In words: Cytotoxicity against human HT-29 cells assessed as growth inhibition after 72 hrs by MTT assay. The assay is classed as functional, cell-based. Particulars: HT-29, 72 h.
Assay [6] has as its system HepG2. Kind of assay: Cytotoxicity against human HepG2 cells assessed as growth inhibition after 72 hrs by MTT assay. Format: functional, cell-based. Particulars: HepG2, 72 h.
The test system of assay [7] is HepG2. Kind of assay: Potency index, ratio of oleanolic acid IC50 to compound IC50 for human HepG2 cells. Format: functional.
Assay [8] concerns B16-F10. In words: Potency index, ratio of oleanolic acid IC50 to compound IC50 for mouse B16F10 cells. Format: functional.
In assay [9] the test system is HT-29. Kind of assay: Potency index, ratio of oleanolic acid IC50 to compound IC50 for human HT-29 cells. Format: functional.

As for `CC1(C)CC[C@]2(C(=O)OCc3ccccc3)CC[C@]3(C)C(=CC[C@@H]4[C@@]5(C)C[C@@H](O)[C@H](O)C(C)(C)[C@@H]5CC[C@]43C)[C@@H]2C1` [BENZYL MASLINATE], the 50% inhibitory concentration (IC50) in assay [1] was 36.2 µM; with HT-29 [5], 15.3 µM; in the assay with HepG2 [6] it was 17 µM. The “Ratio IC50” value with HepG2 [2] turned out to be 5.8; with B16-F10 [3] it was 1; in the assay on HT-29 [4], 2.1.
`CC(=O)O[C@@H]1C[C@]2(C)[C@H]3CC=C4[C@@H]5CC(C)(C)CC[C@]5(C(=O)NCCCOCCOCCOCCCNC(=O)[C@]56CCC(C)(C)C[C@H]5C5=CC[C@@H]7[C@@]8(C)C[C@@H](OC(C)=O)[C@H](OC(C)=O)C(C)(C)[C@@H]8CC[C@@]7(C)[C@]5(C)CC6)CC[C@@]4(C)[C@]3(C)CC[C@H]2C(C)(C)[C@H]1OC(C)=O`: the IC50 in assay [1] is 107 µM; with HT-29 [5], 64.3 µM; in the assay on HepG2 [6], 113 µM. Further, the “Ratio IC50” value is on record as 0.9 in the assay on HepG2 [2], 0.3 in the assay with B16-F10 [3] and 0.5 with HT-29 [4].
Regarding `COCCOCCOCC(=O)O[C@H]1CC[C@]2(C)[C@H]3CC=C4[C@@H]5CC(C)(C)CC[C@]5(C(=O)OCc5ccccc5)CC[C@@]4(C)[C@]3(C)CC[C@H]2C1(C)C`, the “Ratio IC50” value in the assay on HepG2 [7] amounted to 2.5; in the assay on B16-F10 [8] it was 0.6; with HT-29 [9] it was 7. For the same compound, the values for the IC50 (in assay [1]; in the assay with HT-29 [5]; in the assay with HepG2 [6]) were 175 µM, 61.6 µM and 84.1 µM, respectively.
As for `CC(=O)O[C@@H]1C[C@]2(C)[C@H]3CC=C4[C@@H]5CC(C)(C)CC[C@]5(C(=O)O)CC[C@@]4(C)[C@]3(C)CC[C@H]2C(C)(C)[C@H]1OC(C)=O`, the entries for the “Ratio IC50” value in the assay on HepG2 [2], with B16-F10 [3] and in the assay with HT-29 [4] were 2, 0.8 and 0.5, respectively. Moreover, the results for the IC50 with HT-29 [5] and with HepG2 [6] were 69.1 µM and 50.2 µM, respectively.
Consider `CC1(C)CC[C@]2(C(=O)NCCCOCCOCCOCCCNC(=O)[C@]34CCC(C)(C)C[C@H]3C3=CC[C@@H]5[C@@]6(C)C[C@@H](O)[C@H](O)C(C)(C)[C@@H]6CC[C@@]5(C)[C@]3(C)CC4)CC[C@]3(C)C(=CC[C@@H]4[C@@]5(C)C[C@@H](O)[C@H](O)C(C)(C)[C@@H]5CC[C@]43C)[C@@H]2C1`, for which the IC50 in assay [1] is 118 µM; in the assay on HT-29 [5], 82.8 µM; in the assay on HepG2 [6], 96.7 µM. In addition, the figures for the “Ratio IC50” value in the assay with HepG2 [2], in the assay on B16-F10 [3] and with HT-29 [4] were 1, 0.3 and 0.4, respectively.
For `CC(=O)O[C@H]1CC[C@]2(C)[C@H]3CC=C4[C@@H]5CC(C)(C)CC[C@]5(C(=O)NCCCOCCOCCOCCCN)CC[C@@]4(C)[C@]3(C)CC[C@H]2C1(C)C`, the entries for the “Ratio IC50” value in the assay on HepG2 [7], in the assay with B16-F10 [8] and with HT-29 [9] were 3.1, 0.5 and 3.1, respectively. Further, the half-maximal inhibitory concentration (IC50) was 201 µM in [1], 138 µM in the assay on HT-29 [5] and 68.7 µM with HepG2 [6].
For the compound `CC1(C)CC[C@]2(C(=O)NCCCOCCOCCOCCCNC(=O)[C@]34CCC(C)(C)C[C@H]3C3=CC[C@@H]5[C@@]6(C)CC[C@H](O)C(C)(C)[C@@H]6CC[C@@]5(C)[C@]3(C)CC4)CC[C@]3(C)C(=CC[C@@H]4[C@@]5(C)CC[C@H](O)C(C)(C)[C@@H]5CC[C@]43C)[C@@H]2C1`, the figures for the “Ratio IC50” value with HepG2 [7], in the assay with B16-F10 [8] and in the assay on HT-29 [9] were 3.2, 0.9 and 5, respectively. The IC50 in [1] was 123 µM; with HT-29 [5], 85.6 µM; with HepG2 [6], 66.7 µM.
For the compound `CC(=O)OC1CC[C@]2(C)[C@H]3CC=C4[C@@H]5CC(C)(C)CC[C@]5(C(=O)NCCCOCCOCCOCCCNC(=O)[C@]56CCC(C)(C)C[C@H]5C5=CC[C@@H]7[C@@]8(C)CC[C@H](OC(C)=O)C(C)(C)[C@@H]8CC[C@@]7(C)[C@]5(C)CC6)CC[C@@]4(C)[C@]3(C)CC[C@H]2C1(C)C` (single isomer, unassigned), the “Ratio IC50” value was found to be 8.7 in the assay with HepG2 [7], 0.9 in the assay on B16-F10 [8] and 5.2 with HT-29 [9]. Further, the IC50 came to 119 µM in assay [1], 83.2 µM in the assay with HT-29 [5] and 24.4 µM with HepG2 [6].
In the case of `CC1(C)CC[C@]2(C(=O)OCc3ccccc3)CC[C@]3(C)C(=CC[C@@H]4[C@@]5(C)CC[C@H](O)C(C)(C)[C@@H]5CC[C@]43C)[C@@H]2C1`, the “Ratio IC50” value in the assay with HepG2 [7] stood at 5.5; in the assay with B16-F10 [8], 2; with HT-29 [9], 6.4. The IC50 in the assay with HT-29 [5] worked out at 67.1 µM; in the assay with HepG2 [6] it was 38.7 µM.
Consider `CC1(C)CC[C@]2(C(=O)O)CC[C@]3(C)C(=CC[C@@H]4[C@@]5(C)C[C@@H](O)[C@H](O)C(C)(C)[C@@H]5CC[C@]43C)[C@@H]2C1` [MASLINIC ACID], for which the results for the IC50 in the assay with HT-29 [5] and in the assay on HepG2 [6] were 32.2 µM and 99.2 µM, respectively.
Taken in the same sequence, the figures for `CC1(C)CC[C@]2(C(=O)O)CC[C@]3(C)C(=CC[C@@H]4[C@@]5(C)CC[C@H](O)C(C)(C)[C@@H]5CC[C@]43C)[C@@H]2C1` [OLEANOLIC_ACID] were 430 µM and 212 µM.
For `CC(=O)O[C@@H]1C[C@]2(C)[C@H]3CC=C4[C@@H]5CC(C)(C)CC[C@]5(C(=O)NCCCOCCOCCOCCCN)CC[C@@]4(C)[C@]3(C)CC[C@H]2C(C)(C)[C@H]1OC(C)=O`, the IC50 in assay [1] is 104 µM; in the assay with HT-29 [5], 130 µM; with HepG2 [6], 176 µM. For the same compound, the “Ratio IC50” value worked out at 0.6 in the assay on HepG2 [2], 0.3 in the assay with B16-F10 [3] and 0.2 in the assay with HT-29 [4].
Regarding `CC(=O)O[C@H]1CC[C@]2(C)[C@H]3CC=C4[C@@H]5CC(C)(C)CC[C@]5(C(=O)O)CC[C@@]4(C)[C@]3(C)CC[C@H]2C1(C)C` [ACETYL OLEANOLIC ACID], the “Ratio IC50” value is 2 with HepG2 [7], 1.6 in the assay with B16-F10 [8] and 2.9 in the assay on HT-29 [9]. Also, the IC50 in the assay with HT-29 [5] turned out to be 148 µM; in the assay on HepG2 [6], 104 µM.

For the origin of these results see ChEMBL document CHEMBL3822440, “Semi-synthesis and antiproliferative evaluation of PEGylated pentacyclic triterpenes” (Eur J Med Chem, 2016).
